Data reported in patent US6562317B2, “Radioactive embolizing compositions” (Micro Therapeutics, Inc., priority 1997, dated 2003).

Assay: Cure of prepolymer injected into 0.1 N NaHCO3 aqueous solution simulating a blood environment
Format: physicochemical
Settings: cyanoacrylate without iridium, same procedure
Experimental: About 0.2 cc of this composition was taken up in a 1 cc syringe through a 21 gage needle and injected into about 150 cc of a 0.1 N NaHCO3 aqueous solution to simulate a blood environment and cure the prepolymer. Upon injection, three small black/gray droplets were formed which immediately fell to the bottom of the container. It took about 15 minutes for the cyanoacrylate to fully cure and to be tack free.

## C=C(C#N)C(=O)OCCCC [cyanoacrylate alone, n-butyl cyanoacrylate]
  cure time compared with the iridium composition: cured in approximately the same time
